# In patent publication US20080220056A1, “Treatment for liver disease” (UNIVERSITY OF SOUTHAMPTON, priority 2002, published 2008):
# How the values were obtained:
# [1] = system: 10 day culture activated hepatic stellate cells; experiment: Nuclear morphology (acridine orange) of hepatic stellate cells treated with 5-HT2 antagonists; type: cell-based, rat
# Procedure: (§1) The mRNA for the 5-HT2B receptor was only found in 10 day culture activated hepatic stellate cells, whereas the mRNA for the 5-HT2C receptor was absent from all cells investigated. […] 10 day culture activated hepatic stellate cells were treated with a range of 5-HT2 antagonists (including Spiperone HCl, Methiothepin Maleate and LY 53,857) at various concentrations and time periods and nuclear morphology was assessed using Acridine Orange (1 μg/ml) staining as described in Examples 1 and 2. […] Caspase 3 activity (as defined by pNA liberation) was subsequently determined at the predetermined optimal times and doses as described in Examples 1 and 2. 10 day culture activated hepatic stellate cells were also treated with the antagonist together with the 5-HT2 agonist serotonin (5-hydroxytryptamine 100 µM) to see if any modification of the caspase 3 specific activity could be achieved by direct receptor binding site competition.
# [2] = system: caspase 3 activity in 10 day culture activated hepatic stellate cells; experiment: Caspase 3 activity (pNA liberation) of hepatic stellate cells treated with 5-HT2 antagonists; type: cell-based, rat; conditions: for effect of serotonin on the specific caspase 3 activity: LY 53,857 100 μM 24 hours, Methiothepin maleate 10 μM 3 hours, with serotonin (100 M [sic])
# Procedure: as §1
# [3] = system: caspase 3 activity in rat hepatic stellate cells; experiment: Caspase 3 (Ac-DEVD-pNA cleavage) activity in rat hepatic stellate cells; type: cell-based; conditions: 200 μmol/L chlorpromazine, three hours
# Procedure: Hepatic stellate cells cultured in 100 mm diameter dishes (Greiner, Frickenhausen, Germany) were harvested and pelleted by centrifugation. The medium supernatant was discarded and the cell pellet was washed in 1 mL of ice-cooled phosphate buffered saline (PBS). Caspase 3 (DEVDase) activity was determined using a colorimetric CaspACE kit (Promega, Southampton, England) using the manufacturer's instructions.
# Caspase 3 (Ac-DEVD-pNA cleavage) activity was then examined in control and gliotoxin-treated hepatic stellate cells. Culture activated rat hepatic stellate cells (14 days) in 100 mm diameter plates were treated with 0.05% (vol/vol) DMSO, 1.5 μmol/L gliotoxin, 20 μmol/L Z-VAD-FMK or 200 μmol/L chlorpromazine for three hours. The cells were then harvested for examination of caspase 3 activity as outlined in the materials and methods sections.
# [4] = system: rat hepatic stellate cells; experiment: Trypan blue exclusion of treated rat hepatic stellate cells; type: cell-based; conditions: rat HSC; 1.5 μmol/L gliotoxin or 200 μmol/L chlorpromazine
# rat hepatocytes [5] = experiment: Rat hepatocyte viability by attachment and trypan blue exclusion; type: cell-based; conditions: 200 μmol/L, four hours
# Procedure: Rat hepatocytes were isolated by collagenase perfusion essentially as previously described. (Harvey et al., Biochemical J., (1998) 331:273-281). Hepatocytes were cultured as outlined for hepatic stellate cells except that they were initially seeded onto collagen coated plates in William's medium E supplemented with 10% fetal calf serum and 1 μg/mL insulin for the first 2 hours.
# Cells were treated with gliotoxin dissolved in DMSO vehicle (added to medium from a 2000-fold molar concentrated stock). Control cells received DMSO vehicle only (i.e., 0.05% vol/vol). All other additions to culture medium were made from concentrated stocks dissolved in DMSO or by direct addition to culture medium. Protein contents of wells were determined using the Lowry assay (Lowry et al., J. Biol. Chem., (1951)193: 265-275).
# The effect of various compounds on cell viability and attachment was determined. Viability of rat hepatocytes as judged by attachment and 0.1% (wt/vol) trypan blue exclusion after four hours treatment with: […]
# rat hepatocytes [6] = experiment: DNA laddering in rat hepatocytes; type: cell-based; conditions: four hours; 50 μmol/L gliotoxin, 200 μmol/L chlorpromazine, 200 μmol/L methapyrilene, 10 ng/mL TNF-α with cycloheximide
# Procedure: Hepatic stellate cells cultured in 35-mm diameter dishes (Greiner) were harvested, pelleted by centrifugation and DNA fragmentation determined as outlined elsewhere (Elsharkawy et al., Hepatology (1999) 30:761-769). Propidium Iodide Flow-Activated Cell Sorting Analysis Detached cells were pelleted by centrifugation, washed in PBS, and resuspended in HYPO buffer (0.1% wt/vol) Na3Citrate and 0.1% (wt/vol) Triton™ X-100 containing […] propidium iodide and incubated for 1 hour. The cells were then analyzed by fluorescence-activated cell sorter (FACS) with a Becton Dickinson (San Jose, Calif.) FACScan instrument using a 488 nm excitation wavelength with a band pass filter set at 530 nm. Attached cells were scraped in HYPO buffer after washing cells with PBS.
# DNA laddering was also used to compare the effect of gliotoxin, chlorpromazine, methapyrilene and also the combination of TNF-α with cycloheximide on hepatocytes and hepatic stellate cells.
# [7] = system: rat hepatic stellate cells; experiment: Hepatic stellate cell apoptosis by acridine orange staining and counting (cycloheximide or serum deprivation), rat cells; type: cell-based; conditions: rat HSC; protein at 142.5 ng/ml
# Procedure: (§2) Human hepatic stellate cells were extracted from the margins of normal human liver resected for colonic metastatic disease as previously described (Iredale et al., Clin. Sci., (1995) 89: 75-81). Rat hepatic stellate cells were extracted from normal rat liver by Pronase and collagenase digestion and purified by centrifugal elutriation as described (Arthur et al., J. Clin. Invest., (1989) 84:1076-1085). Extracted hepatic stellate cells were cultured on plastic until they were activated to a myofibroblastic phenotype after 7 to 10 days. Human and rat hepatic stellate cells were used for experiments after activation in primary culture or before fourth passage. Cells were cultured in Dulbecco's modified Eagle's medium in the presence of 16% fetal calf serum and antibiotics.
# (§3) Apoptosis of hepatic stellate cells was induced by absolute serum deprivation, cycloheximide treatment (Issa et al., Gut (2001) 48: S48-S57), or exposure to nerve growth factor as previously described (Trim et al., Am. J. Pathol., (2000) 156, 1235-1243). Hepatic stellate cells were cultured in 24-well tissue culture plates. Rat and human hepatic stellate cells were exposed to proapoptotic stimuli with and without recombinant TIMP-1 (Biogenesis, Poole, UK) and other manipulations as detailed below. Following a 4 hour incubation at 37° C., nuclear morphology was assessed by adding acridine orange to each well (final concentration 1 μg/ml) and observing the cells under blue fluorescence. The total number of apoptotic bodies was counted, and any apoptotic bodies floating in the supernatant were included by racking up the objective lens. The total number of cells per field was counted, and an apoptotic index was calculated. Each condition was performed in duplicate, and three high power fields were counted for each well. […] To examine for autocrine effects, hepatic stellate cells were incubated for 18 hours with azide-free polyclonal neutralizing antibodies to TIMP-1 and a nonimmune IgG control (Santa Cruz Biotechnology, Inc., Santa Cruz, Calif.), and responses were assessed by acridine orange staining and counting.
# Apoptosis was assessed by acridine orange staining. […] A normal cell lies adjacent to the apoptotic body. This technique was used to determine the percentage of apoptotic hepatic stellate cells following exposure to cyclohexamide in the presence or absence of TIMP-1. Hepatic stellate cells were exposed to 50 μM cyclohexamide and 0, 1, 10, 100 or 200 ng/ml of TIMP-1. Cells treated with serum alone were used as controls. […] Bovine serum albumin, used as a carrier for the TIMP-1 had no antiapoptotic effect.
# [8] = system: human hepatic stellate cells; experiment: Hepatic stellate cell apoptosis by acridine orange staining and counting (cycloheximide or serum deprivation), human cells; type: cell-based; conditions: human HSC; protein at 142.5 ng/ml
# Procedure: as §2
# as §3, with “Rat and human hepatic stellate cells were exposed to proapoptotic stimuli with and without recombinant TIMP-1 (Biogenesis, Poole, UK) and other manipulations as detailed below.” left out
# Apoptosis was assessed by acridine orange staining. […]
# [9] = system: caspase-3 activity in hepatic stellate cells; experiment: Caspase-3 activity in cycloheximide-treated hepatic stellate cells; type: cell-based; conditions: wild type TIMP-1 or T2G mutant N-TIMP-1
# Procedure: Apoptosis was quantified by a colorimetric assay for caspase-3 activity (Promega) according to the manufacturer's instructions.
# Caspase-3 is a central caspase in the proapoptotic cascade (Hengartner, Nature (2000) 407, 770-776) and can be used as an alternative assay to assess apoptosis. Hepatic stellate cells were cultured in 50 μM cycloheximide with TIMP-1 at a concentration of 0, 1, 10, or 100 ng/ml. Controls where cells were incubated with either the caspase 3 inhibitor benzyloxycarbonyl-Val-Ala-Asp-fluoromethylketone or serum alone were also performed. Data are expressed as mean ±S.E. and are presented as percentage of control given the arbitrary value of 100%. * indicates p<0.001; n=3. […] Although the mean caspase-3 activity of the cells treated with 10 ng/ml TIMP-1 was slightly lower than that treated with 100 ng/ml of TIMP-1, this was not statistically significant (p=0.67 by Student's t test).
molecule,measurement,setting,value
"CC(O)C(C)OC(=O)[C@@H]1C[C@@H]2c3cccc4c3c(cn4C(C)C)C[C@H]2N(C)C1 (stereo partly shown) [LY 53,857]",maximal nuclear condensation,"[1]; 24 hours at 100 μM (LY 53,857)",~100%
same,specific caspase 3 activity,"[2]; 100 μM for 24 hours (LY 53,857)",1 μmol pNA liberated/hour/μg protein
same,effect of serotonin on the specific caspase 3 activity,[2],not significantly reduced by the presence of serotonin
CSc1ccc2c(c1)C(N1CCN(C)CC1)Cc1ccccc1S2.O=C(O)/C=C\C(=O)O (stereo not shown) [Methiothepin maleate],maximal nuclear condensation,[1]; 3 hours at 10-100 μM (Methiothepin maleate),100%
same,specific caspase 3 activity,[2]; 10 μM for 3 hours (Methiothepin maleate),0.9 μmol pNA liberated/hour/μg protein
same,effect of serotonin on the specific caspase 3 activity,[2],not significantly reduced by the presence of serotonin
O=C(CCCN1CCC2(CC1)C(=O)NCN2c1ccccc1)c1ccc(F)cc1 [Spiperone],maximal nuclear condensation,[1]; 24 hours at 100 μM (Spiperone),80%
same,specific caspase 3 activity,[2]; 100 μM for 24 hours (Spiperone),6.5 μmol pNA liberated/hour/μg protein
same,specific caspase 3 activity in the presence of serotonin,[2]; Spiperone 100 μM for 24 hours with serotonin (100 M [sic]),4 μmol pNA liberated/hr/μg protein
CN(C)CCCN1c2ccccc2Sc2ccc(Cl)cc21 [chlorpromazine],increase in caspase 3 activity,[3],not seen
same,0.1% (wt/vol) trypan blue exclusion (membrane integrity),[4],unable to exclude 0.1% (wt/vol) trypan blue
same,"hepatocytes that do not exclude trypan blue, compared with 50 μmol/L gliotoxin",rat hepatocytes [5],a level similar
same,cleavage of hepatocyte DNA to a nucleosomal ladder,rat hepatocytes [6],only hepatocytes treated with TNF-α and cycloheximide cleaved their DNA to a nucleosomal ladder
wild type N-TIMP-1: wild type (active) TIMP-1 protein compared with the T2G mutant,apoptosis induced by cycloheximide (acridine orange),[7],significantly inhibited apoptosis
same,apoptosis induced by cycloheximide (acridine orange),[8],significantly inhibited apoptosis
same,caspase-3 activity in cycloheximide-treated hepatic stellate cells,[9],significantly reduced caspase-3 activity
